Reference: BindingDB's records for doi:10.1016/j.bmcl.2019.05.048 (Bristol-Myers Squibb, 2019)

Biological target: Hepatic lipase (Mouse)
Assay: Inhibition of hepatic lipase in endothelial lipase knock-out mouse plasma using D31-POPC-HDL as substrate incubated for 2 hrs by LC/MS analysis

IC50: 26 µM
SMILES: COCCS(=O)(=O)C(C(=O)NCC(=O)NC1CC1)c1nc2ccc(-c3ccc(F)nc3)cc2s1 (stereo unspecified)
